The values that follow come from article PMC6865014, “Discovery of Novel µ-Opioid Receptor Inverse Agonist from a Combinatorial Library of Tetrapeptides through Structure-Based Virtual Screening” (Molecules, 2019).

The subject of assay [1] is MOR, rat brain membrane homogenates. Put plainly: MOR specificity of the peptide 1 effect: [^35S]GTPγS binding with co-incubated DAMGO or cyprodime. Format: biochemical, rat (male Wistar). The following applies: rat brain membranes. The procedure: Rats were decapitated and their brains were quickly removed. The brains were used for membrane preparation according to Benyhe et al. partly used for competition binding experiments and partly were further prepared for the [^35S]GTPγS binding experiments based on Zádor et al.. Briefly, the brains were homogenized, centrifuged in ice-cold 50 mM Tris-HCl (pH 7.4) buffer and incubated at 37 °C for 30 min in a shaking water-bath. After incubation, the centrifugation was repeated as described before and the final pellet was suspended in 50 mM Tris-HCl pH 7.4 buffer containing 0.32 M sucrose and stored at −80 °C. […]
In [^35S]GTPγS binding experiments was measured the GDP→GTP exchange of the Gαi/o protein in the presence of a given ligand to measure ligand potency and the maximal efficacy of receptors G-protein. The nucleotide exchange is monitored by a radioactive, non-hydrolysable GTP analog, [^35S]GTPγS. […] Total binding was measured in the absence of test compounds, while non-specific binding was determined in the presence of 10 μM unlabeled GTPγS. […] The radioactivity of the filters was also detected as described above. […]
(§1) The specific binding of all radiolabeled compounds was calculated by the subtraction of non-specific binding from total binding and was given in percentage. […]
(In general: GTPγS is a poorly hydrolysed GTP analogue; its binding reports G protein activation.)

In assay [2] the test system is MOR (µ-opioid receptor), rat brain membranes. The assay is described as follows: Radioligand competition binding, [^3H]DAMGO. Also noted: species or system rat (male Wistar). The following applies: for activity against MOR (in words): stated when comparing binding modes, up to 10 µM. The procedure:
(§2) Rats were decapitated and their brains were quickly removed. The brains were used for membrane preparation according to Benyhe et al. partly used for competition binding experiments and partly were further prepared for the [^35S]GTPγS binding experiments based on Zádor et al.. Briefly, the brains were homogenized, centrifuged in ice-cold 50 mM Tris-HCl (pH 7.4) buffer and incubated at 37 °C for 30 min in a shaking water-bath. After incubation, the centrifugation was repeated as described before and the final pellet was suspended in 50 mM Tris-HCl pH 7.4 buffer containing 0.32 M sucrose and stored at −80 °C. For the [^35S]GTPγS binding experiments the final pellet of rat brain membrane homogenate was suspended in ice-cold TEM (Tris-HCl, EGTA, MgCl2) and stored at −80 °C for further use.
Total and non-specific binding was determined in the absence of ligands and the presence of 10 µM unlabeled naloxone, respectively. Following incubation, the bound and unbound radioligands were separated by rapid vacuum filtration through Whatman GF/C glass fibers and washed three times with 5 mL ice-cold 50 mM Tris-HCl (pH: 7.4). The radioactivity of the filters was detected in UltimaGold^TM MV aqueous scintillation cocktail with Packard Tricarb 2300TR liquid scintillation counter. The competition binding assays were performed in duplicate and repeated at least three times.
(§3) The specific binding of all radiolabeled compounds was calculated by the subtraction of non-specific binding from total binding and was given in percentage. The data were normalized to total specific binding, which was settled 100%, which in the case of [^35S]GTPγS also represents the basal activity of the G-protein. Experimental data were presented as mean ± S.E.M. Statistical analyses were performed with GraphPad Prism 5.0 applying one-way ANOVA with Tukey’s multiple comparison test. Significance was accepted at the p < 0.05 level.

Assay [3] relates to DOR (δ-opioid receptor), rat brain membranes. Put plainly: Radioligand competition binding, [^3H]IleDelt II. Also noted: species or system rat (male Wistar). As to conditions: 3 and 10 µM. The procedure: as §2
Total and non-specific binding was determined in the absence of ligands and the presence of 10 µM unlabeled naloxone, respectively. […] The radioactivity of the filters was detected in UltimaGold^TM MV aqueous scintillation cocktail with Packard Tricarb 2300TR liquid scintillation counter. […]
as §1
On the technique in general: Displacement assays read how much labelled ligand stays bound in the presence of the test substance.

The subject of assay [4] is Gαi/o protein, rat brain membrane homogenates. Put plainly: Functional [^35S]GTPγS binding (G-protein activity). Format: biochemical, rat (male Wistar). As to conditions: 10 µM, basal activity = 100%, 30 °C, 60 min, triplicates, at least three times; for effect on G-protein basal activity / [^35S]GTPγS specific binding (in words): rat brain membranes, pH 7.4. The procedure: as §2
In [^35S]GTPγS binding experiments was measured the GDP→GTP exchange of the Gαi/o protein in the presence of a given ligand to measure ligand potency and the maximal efficacy of receptors G-protein. The nucleotide exchange is monitored by a radioactive, non-hydrolysable GTP analog, [^35S]GTPγS. The functional [^35S]GTPγS binding experiments were performed as previously described, with some modifications. The test compounds in 10 µM were incubated together with rat brain membrane homogenates containing ~10 μg/mL protein at 30 °C for 60 min in Tris-EGTA buffer (pH 7.4) composed of 50 mM Tris-HCl, 1 mM EGTA, 3 mM MgCl2, 100 mM NaCl, containing 20 MBq/0.05 cm^3 [^35S]GTPγS (0.05 nM). […] Total binding was measured in the absence of test compounds, while non-specific binding was determined in the presence of 10 μM unlabeled GTPγS. The bound and unbound [^35S]GTPγS were separated as described in the competition binding assays section through Whatmann GF/B glass fibers. The radioactivity of the filters was also detected as described above. [^35S]GTPγS binding experiments were performed in triplicates and repeated at least three times.
as §3

Assay [5] has as its target δ-opioid receptor (rat (endogenous in Wistar rat brain)) (UniProt P33533). The assay is described as follows: radioligand binding; competition against ~1 nM [^3H]IleDelt II on rat brain membranes (0.3-0.5 mg/mL protein), test ligands at 3 and 10 µM, 35 °C, 45 min; non-specific binding with 10 µM naloxone; filtration, 50 mM Tris-HCl pH 7.4 wash.
The next assay deals with δ-opioid receptors. As to conditions: ref [11]; cited from earlier work. The source says:
These are potent μ-opioid agonists that exert addiction liability and numerous side effects, such as euphoria, addiction, respiratory depression, and gastrointestinal adverse reactions; therefore; circumventing these drawbacks is of extensive importance. A large amount of literature documented novel approaches to disconnecting the analgesic efficacy of μ-opioid agonists from morphine-like side effects, for example biasing the GPCRs over β-arrestin2 recruitment (TRV130, PZM21, HS665) or designing positive allosteric modulators of the MOR (BMS-986122), MOR inverse agonists/KOR antagonists, ...

Assay [6] has as its target µ-opioid receptor (rat (endogenous in Wistar rat brain)) (UniProt P33535).

Consider “H-Tyr-Lys-Arg-Cys-OH [peptide 1, TFA.H-Tyr-Lys-Arg-Cys-OH]”, for which the “MOR functional activity (in words)” value in assay [1] (10 µM) is recorded as “appreciable inverse agonist effect at MOR”. Also, the “inverse agonist effect in presence of DAMGO” value in assay [1] (peptide 1 10 µM + DAMGO 10 µM) is listed as “the inverse agonist effect was reversed back to basal activity level”. In addition, the “inhibition of [^3H]DAMGO specific binding (in words)” value in assay [2] (3 and 10 µM, rat brain membranes) was “displayed inhibition of [^3H]DAMGO specific binding”. Moreover, the “selectivity MOR over DOR (in words)” value in assay [2] ([^3H]DAMGO vs [^3H]IleDelt II binding, rat brain membranes) is recorded as “selectivity for MOR over DOR”. Moreover, the “inhibition of [^3H]IleDelt II specific binding (in words)” value in assay [3] is “not against [^3H]IleDelt II”. Also, the “reduction of G-protein basal activity ([^35S]GTPγS specific binding)” value in assay [4] (rat brain membranes ~10 μg/mL, pH 7.4, 0.05 nM [^35S]GTPγS) was ~ 20%. Moreover, the “effect on G-protein basal activity / [^35S]GTPγS specific binding (in words)” value in assay [4] is listed as “appreciable inverse agonist effect”.
Take “H-Tyr-Trp-Trp-Trp-OH [peptide 2, TFA.H-Tyr-Trp-Trp-Trp-OH]”: the “activity against MOR (in words)” value in assay [2] was “inactive against MOR”. Further, the “effect on G-protein basal activity / [^35S]GTPγS specific binding (in words)” value in assay [4] is reported as “did not alter significantly the basal activity”.
For “H-Tyr-Trp-Tyr-Trp-OH [peptide 3, TFA.H-Tyr-Trp-Tyr-Trp-OH]”, in assay [2], the “activity against MOR (in words)” value is “inactive against MOR”. Moreover, the “effect on G-protein basal activity / [^35S]GTPγS specific binding (in words)” value in assay [4] is listed as “did not alter significantly the basal activity”.
Consider Ile^5,6-deltorphin II (peptide), for which the specific binding of the radiolabeled homolog left (percent of total) in assay [5] was determined as 0%.
For the molecule “Tyr-D-Ala-Gly-(NMe)Phe-Gly-ol [DAMGO, reference compound]”, the “specific binding of [^3H]DAMGO in presence of unlabeled homologue” value in assay [2] (control, unlabeled DAMGO 3 and 10 µM, rat brain membranes, 35 °C, 45 min, 0% = non-specific binding level) was 0%. Besides, the “effect on G-protein basal activity / [^35S]GTPγS specific binding (in words)” value in assay [4] is “significantly increased the specific binding of the [^35S]GTPγS compared to the basal level”.
Regarding rubiscolin-6, in the assay on δ-opioid receptors, the “G protein signaling at δ-opioid receptors (in words)” value is “activate G protein signaling pathways at the δ-opioid receptors” and the “β-arrestin recruitment (in words)” value was “minimal β-arrestin recruitment”.

B1: peptide 1 (Tyr-Lys-Arg-Cys) (peptide)
peptide: YKRC
The molecule B1 yielded a [^35S]GTPγS specific binding (G-protein basal activity) in rat brain membranes, 10 µM peptide 1 in assay [6] of 20%.
